Holding throughout (assay type): in vivo, mice
Data set [1] relates to PACA2 tumor xenografts. Briefly: PACA2 tumor xenograft efficacy study (Example 106). As to the method:
Six-week old female athymic nude mice (NCR nu/nu; Charles River Laboratory, Wilmington, Mass.) were acclimated to the animal housing facility for at least 1 week before the study. Efficacy studies were performed in athymic mice bearing PACA2 tumor xenografts to determine the effect of compound on tumor growth. Tumor cells (1×10^7 PACA2 cells/animal) were inoculated subcutaneously on day 0. Tumor dimensions were measured by a digital microcaliper, and tumor volumes were calculated as length×width^2/2. […] Results are expressed as mean tumor volume±SE. To assess differences in tumor size between groups, a Mann-Whitney non-parametric t test was performed and significance was assessed for p values <0.05. Tumor size was evaluated periodically during treatment at the indicated days post-inoculation. Results are represented as the mean of tumor volume in mm^3±SE of several tumors (n=10) in function of the treatment period. […] (See FIG. 1A).

Data set [2] concerns PACA2 tumor xenografts. The data set is described as follows: PACA2 tumor xenograft efficacy study (Example 107). The note with it: 3 mg/kg or 12.5 mg/kg intraperitoneally 3x weekly. As to the method:
Six weeks old female athymic nude mice (NCR nu/nu) received from Charles River Laboratory, acclimated to the animal housing facility for one week before initiation of the study. Mice were housed in sterile cages of 4 each with autoclaved bedding, provided with autoclaved food and water ad libitum. Efficacy studies were performed in athymic mice bearing PACA2 tumor xenografts to determine the effect of compound on tumor growth. Tumor cells (1×10^7 PACA2 cells/animal) were inoculated subcutaneously on day 0. Tumor dimensions were measured three times weekly by a digital microcaliper, and tumor volumes were calculated as length×width^2/2. When tumors reached a volume of ˜300 mm^3, mice were randomized into groups and treated 3× weekly (Monday-Wednesday-Friday, followed by a 2-day dosing holiday) intraperitoneally. With either vehicle control or 3 mg/kg and 12.5 mg/kg compound formulated in DMA/PEG400/water (20:40:40). Results are expressed as mean tumor volume±SE. To assess differences in tumor size between groups, student's t test was performed and significance was assessed for p values <0.05. Tumor size was evaluated periodically during treatment at the indicated days post-inoculation. Results are represented as the mean of tumor volume in mm^3±SE of several tumors (n=10) in function of the treatment period. […] (See FIG. 1B).

A further data set concerns DU145 xenograft. The data set is described as follows: Xenograft model. The conditions noted are these: DU145, Prostate; procedures and dosages of Examples 106-108.

Consider `C#CC[C@H](c1nc2cc(Cl)ccc2c(=O)n1Nc1ccccc1)N(CCCN)C(=O)c1cccc(Cl)c1F` [Compound 1, N-(3-Amino-propyl)-3-chloro-N—[(R)-1-(7-chloro-4-oxo-3-phenylamino-3,4-dihydro-quinazolin-2-yl)-but-3-ynyl]-2-fluoro-benzamide], for which the “tumor growth compared to the vehicle control group” value in the data set on PACA2 tumor xenografts [1] (6.25 or 12.5 mg/kg intraperitoneally 3x weekly for 4 weeks, tumors ~100 mm^3 at start, FIG. 1A) is reported as “Significant reductions in tumor growth”; in the data set on PACA2 tumor xenografts [2] (tumors ~300 mm^3 at start, FIG. 1B), “Significant reductions in tumor growth”. Moreover, the tolerability of doses result with PACA2 tumor xenografts [1] (6.25 or 12.5 mg/kg intraperitoneally 3x weekly, PACA2 xenograft mice) is recorded as “well-tolerated”; with PACA2 tumor xenografts [2] (PACA2 xenograft mice), “well-tolerated”. In addition, the “Xenograft Outcome (approximate percent growth inhibition)” value in the data set with DU145 xenograft is ~75%.

Values taken from patent US20110217300A1, “Quinazolinone Compounds and Methods of Use Thereof” (priority 2007, published 2011).
